Experimental data published in patent publication US20080241834A1, “Method for improving neoadjuvant chemotherapy” (priority 2006, published 2008).

Assays:
[1] = system: breast cancer in BRCA1 mutation carriers; experiment: Response to neoadjuvant chemotherapy in breast cancer patients carrying a BRCA1 mutation; assay type: in vivo, human
Method: (§1) 3479 unselected incident cases of invasive breast cancer were identified at 18 different hospitals in Poland during the study period. The medical records and pathology reports were reviewed locally at the study centre in Szczecin. Information was recorded on age at diagnosis, stage, grade and lymph-node status, estrogen-receptor status, multi-centricity and bilaterality. Pathology review of tumor blocks and/or paraffin-embedded slides were requested from the corresponding pathology centres. One or more specimens were obtained from 3136 of the […] patients. A central pathology review was conducted in Szczecin by two pathologists associated with the study. Pathologists were blinded to mutation status. […] Pre-treatment tumor size was determined in all patients by a combination of clinical examination and mammography (for some patients ultrasound examinations were also performed). Post-treatment size was determined by pathology report. Lymph node status was evaluated prior to and after treatment. Pre-treatment lymph node status was evaluated with a combination of clinical exam, ultrasound and fine needle aspiration. After treatment all patients underwent axillary dissection and node status was evaluated by pathology report. […] The statistical significance of group differences was assessed using Fisher's Exact Test. […]

[2] = system: breast cancer in non-carriers; experiment: Response to neoadjuvant chemotherapy in matched non-carrier breast cancer patients; assay type: in vivo, human
Method: as §1

tumor cell lines = conditions: BRCA1 protein reconstituted into the tumor cell lines; cited from earlier work
MCF7 cells = conditions: BRCA1 protein downregulation, premature inactivation of the spindle checkpoint; cited from earlier work
breast cancer = conditions: cited from earlier work
lung cancer = conditions: cited from earlier work
ovarian cancer = conditions: cited from earlier work

| Compound | patients with complete or partial response, of patients treated [1] | patients with complete or partial response, of patients treated ([2]; non-carriers) | patients who responded ([2]; non-carriers with ER-negative tumors) | sensitivity to paclitaxel (tumor cell lines) | sensitivity to paclitaxel (MCF7 cells) | effectivity (breast cancer) [%] | effectivity (lung cancer) [%] | effectivity (ovarian cancer) |
| --- | --- | --- | --- | --- | --- | --- | --- | --- |
| CC(=O)O[C@@]12CO[C@@H]1C[C@H](O)[C@@]1(C)C(=O)[C@H](O)C3=C(C)[C@@H](OC(=O)[C@H](O)[C@@H](NC(=O)OC(C)(C)C)c4ccccc4)C[C@@](O)([C@@H](OC(=O)c4ccccc4)[C@H]21)C3(C)C [docetaxel] | 6 of the 15 | 12 of 12 | 4 | – | – | – | – | – |
| CC(=O)O[C@H]1C(=O)[C@@]2(C)[C@H]([C@H](OC(=O)c3ccccc3)[C@]3(O)C[C@H](OC(=O)[C@H](O)[C@@H](NC(=O)c4ccccc4)c4ccccc4)C(C)=C1C3(C)C)[C@]1(OC(C)=O)CO[C@@H]1C[C@@H]2O [paclitaxel] | – | – | – | increased | insensitive | ~50 | ~20 | around 30% |
